From patent publication US9999222B2, “Herbicidal combination comprising azines” (BASF SE, priority 2014, dated 2018)
Where two headings read alike, the source gives them in different places.

Legend:
Test in all cases: Greenhouse test, pre-emergence treatment
[1] = tested on: POLCO; assay type: in vivo, Polygonum convolvulus; settings: Fallopia convolvulus, pre-emergence, 480 h, 20 g ai/ha, 20 DAT; read-out: observed % activity
Outline: (§1)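 Seeds were sown in loamy sand with about 3.0% humus, and compounds in water were sprayed immediately after sowing, alone or as combinations formulated as 10% emulsion concentrates. Plants grew under hoods until rooted, at 10-25 °C or 20-35 °C by species, for 2 to 4 weeks. Damage was scored 0-100 (100 = no emergence or complete destruction), and Colby expected values were E=X+Y−(X·Y/100).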

[2] = tested on: SETFA; assay type: in vivo, Setaria faberi; settings: Setaria faberi, 480 h, use rate 30 g ai/ha, read-out: observed % activity 20 DAT
Outline: as §1

[3] = tested on: ECHCG; assay type: in vivo, Echinocloa crus-galli; settings: Echinochloa crus-galli, 480 h, read-out: observed % activity 20 DAT
Outline: as §1

[4] = tested on: GALAP; assay type: in vivo, Galium aparine; settings: Galium aparine, pre-emergence, 480 h, 40 g ai/ha, 20 DAT; read-out: observed % activity
Outline: as §1

[5] = tested on: LOLMU; assay type: in vivo, Lolium multiflorum; settings: Lolium multiflorum, pre-emergence, 480 h, pre-emergence, read-out: observed % activity 20 DAT
Outline: as §1

[6] = tested on: PHACA; assay type: in vivo, Phalaris canariensis; settings: Phalaris canariensis, pre-emergence, 480 h
Outline: as §1

[7] = tested on: KCHSC; assay type: in vivo, Kochia scoparia; settings: Bassia scoparia, pre-emergence, 480 h
Outline: as §1

[8] = tested on: BRADC; assay type: in vivo, Brachiaria decumbens; settings: Urochloa decumbens, pre-emergence, 480 h
From the text: The culture containers used were plastic flowerpots containing loamy sand with approximately 3.0% of humus as the substrate. The seeds of the test plants were sown separately for each species.
For the pre-emergence treatment, the active ingredients, which had been suspended or emulsified in water, were applied directly after sowing by means of finely distributing nozzles. The containers were irrigated gently to promote germination and growth and subsequently covered with transparent plastic hoods until the plants had rooted. This cover caused uniform germination of the test plants, unless this had been impaired by the active ingredients.
Depending on the species, the plants were kept at 10-25° C. or 20-35° C., respectively.
The test period extended over 2 to 4 weeks. During this time, the plants were tended, and their response to the individual treatments was evaluated.
Evaluation was carried out using a scale from 0 to 100. 100 means no emergence of the plants, or complete destruction of at least the aerial moieties, and 0 means no damage, or normal course of growth. A moderate herbicidal activity is given at values of at least 60, a good herbicidal activity is given at values of at least 70, and a very good herbicidal activity is given at values of at least 85.
The respective stated components a and b, and if appropriate, c were formulated as a 10% by weight strength emulsion concentrate and, with addition of the amount of solvent system, introduced into the spray liquor used for applying the active compound.
In the examples, the solvent used was water.
In the examples below, using the method of S. R. Colby (1967) “Calculating synergistic and antagonistic responses of herbicide combinations”, Weeds 15, p. 22ff., the value E, which is expected if the activity of the individual active compounds is only additive, was calculated. E=X+Y−(X·Y/100) where • X=percent activity using active compound a at an application rate A; • Y=percent activity using active compound b at an application rate B; • E=expected activity (in %) by a+b at application rates A+B.
If the value found experimentally is higher than the value E calculated according to Colby, a synergistic effect is present.

[9] = tested on: ALOMY; assay type: in vivo, Alopecurus myosuroides; settings: Alopecurus myosuroides, pre-emergence, 480 h
Outline: as §1

[10] = tested on: AVEFA; assay type: in vivo, Avena fatua; settings: pre-emergence
Outline: as §1

[11] = 10 g ai/ha, 20 DAT, read-out: observed % activity
[12] = 20 g ai/ha, 20 DAT, read-out: observed % activity
[13] = 10 g ai/ha, read-out: observed % activity 20 DAT
[14] = 20 g ai/ha, read-out: observed % activity 20 DAT
[15] = 30 g ai/ha, read-out: observed % activity 20 DAT
[16] = 40 g ai/ha, read-out: observed % activity 20 DAT
[17] = use rate 30 g ai/ha, read-out: observed % activity 20 DAT
[18] = use rate 60 g ai/ha, 20 DAT, read-out: observed % activity 20 DAT
[19] = use rate 60 g ai/ha, read-out: observed % activity 20 DAT
[20] = 40 g ai/ha, 20 DAT, read-out: observed % activity

In the case of `CC(C)N(C(=O)COc1nnc(C(F)(F)F)s1)c1ccc(F)cc1` [Flufenacet, flufenacet], the inhibition at 20 g/ha [1] is reported as 0%, the inhibition at 30 g/ha [2] is reported as 98% and the pest or weed control at 30 g/ha ([3]; 30 g ai/ha) is reported as 75%. For the same compound, the pest or weed control at 60 g/ha ([3]; 60 g ai/ha) was 95%, the pest or weed control at 30 g/ha ([3]; use rate 30 g ai/ha, 20 DAT) was 85% and the inhibition at 30 g/ha ([3]; use rate 30 g ai/ha) was 85%. The inhibition at 40 g/ha [4] was 40%, the pest or weed control at 10 g/ha ([5]; 10 g ai/ha) was 0% and the pest or weed control at 20 g/ha ([5]; 20 g ai/ha) was 20%. It also gave a pest or weed control at 30 g/ha ([5]; 30 g ai/ha) of 30%, a pest or weed control at 40 g/ha ([5]; 40 g ai/ha) of 55% and a pest or weed control at 30 g/ha ([5]; use rate 30 g ai/ha, 20 DAT) of 0%. The inhibition at 30 g/ha ([5]; use rate 30 g ai/ha) was 20%, the pest or weed control at 60 g/ha ([5]; use rate 60 g ai/ha, 20 DAT) was 30% and the inhibition at 60 g/ha ([5]; use rate 60 g ai/ha) was 30%. For the same compound, the inhibition at 10 g/ha [6, 11] was 0%, the inhibition at 20 g/ha [6, 12] was 33% and the pest or weed control at 10 g/ha [6, 13] was 10%. It also gave a pest or weed control at 20 g/ha [6, 14] of 65%, a pest or weed control at 30 g/ha [6, 15] of 80% and a pest or weed control at 40 g/ha [6, 16] of 75%. It also gave an inhibition at 30 g/ha [6, 17] of 65%, a pest or weed control at 60 g/ha [6, 18] of 98% and an inhibition at 60 g/ha [6, 19] of 98%. The inhibition at 10 g/ha [7, 11] was 0%, the inhibition at 20 g/ha [7, 12] was 0% and the inhibition at 40 g/ha [7, 20] was 0%. For the same compound, the inhibition at 30 g/ha [7, 17] was 0%, the inhibition at 60 g/ha [7, 19] was 0% and the inhibition at 40 g/ha [8, 20] was 65%. It also gave a pest or weed control at 10 g/ha [8, 13] of 45%, a pest or weed control at 20 g/ha [8, 14] of 40% and a pest or weed control at 30 g/ha [8, 15] of 0%. For the same compound, the pest or weed control at 40 g/ha [8, 16] was 25%, the pest or weed control at 60 g/ha ([8]; 60 g ai/ha, read-out: observed % activity 20 DAT) was 98% and the inhibition at 10 g/ha [9, 11] was 28%. For the same compound, the pest or weed control at 10 g/ha [9, 13] was 25%, the pest or weed control at 20 g/ha [9, 14] was 70% and the pest or weed control at 40 g/ha [9, 16] was 75%. For the same compound, the inhibition at 30 g/ha [9, 17] was 75%, the pest or weed control at 60 g/ha [9, 18] was 80% and the inhibition at 60 g/ha [9, 19] was 80%. The inhibition at 40 g/ha ([10]; Avena fatua, 480 h, 40 g ai/ha, 20 DAT, read-out: observed % activity) was 10%, the “observed % activity 20 DAT” value ([10]; 30 g ai/ha) was 0% and the “observed % activity 20 DAT” value ([10]; 40 g ai/ha) was 55%.
